Where two headings read alike, the source gives them in different places.
Experiments:
[1] = biological target: T1, monoamine oxidase B (MAO-B) (Rattus norvegicus, UniProt P19643); assay: biochemical
T1 construct: from tissue; host or cells: brain cortex of male F344/N rats (supernatant of homogenate)
T1 sequence (P19643 1-520): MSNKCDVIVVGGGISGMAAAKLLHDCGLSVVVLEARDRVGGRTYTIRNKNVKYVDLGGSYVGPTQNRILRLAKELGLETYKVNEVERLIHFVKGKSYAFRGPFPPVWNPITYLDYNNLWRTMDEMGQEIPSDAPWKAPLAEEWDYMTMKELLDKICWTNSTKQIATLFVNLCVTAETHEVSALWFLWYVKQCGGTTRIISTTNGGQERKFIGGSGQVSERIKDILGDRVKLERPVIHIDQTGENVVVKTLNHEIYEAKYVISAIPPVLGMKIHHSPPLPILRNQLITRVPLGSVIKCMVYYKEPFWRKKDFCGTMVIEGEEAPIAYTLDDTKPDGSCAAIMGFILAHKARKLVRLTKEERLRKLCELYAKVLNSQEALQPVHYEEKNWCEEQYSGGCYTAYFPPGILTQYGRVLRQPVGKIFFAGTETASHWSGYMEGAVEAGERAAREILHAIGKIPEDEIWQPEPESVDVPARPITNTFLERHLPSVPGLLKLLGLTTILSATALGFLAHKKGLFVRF
Procedure: At first, monoamine oxidase B (MAO-B) was purified from rat brain cortex, and then activity inhibition assay of these derivatives against monoamine oxidase B(MAO-B) was carried out.
MAO-B enzyme preparations were prepared from brain cortex of decapitalized male F344/N rats. The brain cortex in PBS solution was frozen with liquid nitrogen and kept at −80° C. for 3 days. The homogenate was then obtained by centrifugation (14,000 rpm, 10 min) of the frontal cortex in 0.1 M potassium phosphate buffer (pH 7.4) at 4° C. and the supernatant was taken as the enzyme source for MAO. A standard solution containing 0.1 M potassium phosphate buffer and albumin were prepared in different concentration grades. Ten microliters of each solution was taken and added with 200 μl of BCA kit. Following the similar method, the above supernatant from brain cortex was diluted and 10 μl of stock solution taken and added with […] of BCA kit. Both standard and sample solutions were incubated at 37° C. for 30 min. 200 μl of the solutions was added to each well of a 96-well microplate and the protein contents were measured with a fluorescence microplate reader by determining optical density at 595 nm.
To the supernatant (protein content, 80 μg/ml) in 96-well microplate was added with 1 U/ml HRP (Horseradish Peroxidase), […] benzylamine, and 50 μM Amplex red in 0.1 M potassium phosphate buffer followed by the tested sample, which was prepared in 200 μg/ml in DMSO as stock solution. These mixtures were incubated at room temperature for 60 min and optical density was determined by a fluorometric reader. Its IC50 was calculated then with the following formula. IC50: median inhibitory concentration, which is defined in this example as the concentration of a inhibitor that is needed for inhibiting 50% activity of an enzyme. Inhibition (%)=1−[(OD595 of sample/protein−[…] of sample)/OD595 of blank]×100% • OD595: Optical density at 595 nm (wavelength) • protein: protein content of control 3. Statistical Analysis

ERK1/2 = assay: Assay for extracellular signal-regulated kinase (ERK) activity (Western blot p-ERK1/2 / ERK1/2); type: cell-based, Human; conditions: for Activation of ERK1/2 (p-ERK/ERK, (%)): 10 μM, T-20 cells, positive control = 100, mean ± SD of three experiments
Procedure: Cell line used in this example were same as those described in example 2.
The activation of the ERKs was measured by using anti-phospho-ERK1/2 and anti-ERK1/2 antibodies (Cell Signaling Technology). In brief, T-20 cells were grown in six-well plates at 5×10^5 cells/well and incubated with culture medium at 37° C. for 18 hours, followed by an additional incubation with culture medium containing 1 μg/ml of tetracycline at 37° C. for 18 hours. Before the experiments, we replaced the medium with DMEM containing 0.5% FBS and treated it with the tested compounds (10 μM each). After treatment, reactions were stopped by placing cells on ice and aspirating off the medium. Cells were harvested and lysed in 50 mM Tris-HCl (pH 8.0), 150 mM NaCl, 5 mM EDTA, 1 mM sodium orthovanadate, 1% Triton X-100, and protease- and phosphatase-inhibitor cocktails. Protein concentration was determined by the BCA assay (Pierce). Each cell lysate, which contained 50 μg proteins, was separated on 12% SDS-polyacrylamide electrophoresis gels, immunoblotted, and identified using anti-phospho-ERK1/2 or anti-ERK1/2 antibody. In this example, T-20 cell line treated with medium containing 1% DMSO and 1 μg/ml of tetracycline was used as positive control group; T-20 cell line treated with medium containing various compounds (10 μM), 1% DMSO and 1 μg/ml of tetracycline were used as test groups for different compounds.

[2] = tested on: soluble amyloid precursor protein α (sAPPα); assay: Effect on secretion of sAPPα in γ-30 cells (Western blot, 6E10 antibody); type: cell-based, Chinese hamster; conditions: 10 μM; for protein content of sAPPα detected by Western blot: FIG. 4A
Procedure: It is known that monoamine oxidase B (MAO-B) inhibitor can activate directly or indirectly ERK-related pathway, so as to regulate amyloid precursor protein (APP) proteolytic process, which lead to modulate indirectly the secretion of soluble amyloid precursor protein α (sAPPα), and inhibit indirectly the production of insoluble β amyloid-peptides (Aβ). […] Thus, in this example, assay was carried out in γ-30 cells to examine the effect of 1,2,3,4-tetrahydroisoquinoline derivatives (12a, c and d) on the secretion of sAPPα.
As described in reference (3) and (6), briefly described below. PS70 Chinese hamster ovary cell (CHO cell) was used to perform a transfection to obtain γ-30 stably transfected cell line, γ-30 stably transfected cell line was used to express then full length amyloid precursor protein (APP) and human PS1, Aph-1α2, and Pen-2 proteins (Human PS, Aph-1α2, and Pen-2). This cell line could be used as the ideal model cell for detecting α-secretase degradation of amyloid precursor protein (APP).
Each group of corresponding cell lysate in example 5 was prepared to identical protein content. Proteins with different molecular weight were separated by means of electrophoresis on SDS-PAGE and Western Blot assay was carried using anti-Aβ1-17 monoclonal antibody (6E10) (purchased from US Chemicom Co.). In this example, γ-30 cell line treated with medium containing 1% DMSO was used as negative control group, γ-30 cell lines treated with medium containing different compounds (10 μM), 1% DMSO and 1 μg/ml of tetracycline were used as test group for different compounds, respectively.
γ-30 stably transfected cell line expresses full length amyloid precursor protein (APP) and human PS1, Aph-1α2, and Pen-2 proteins. When α-secretase cleavages amyloid precursor protein (APP), soluble amyloid precursor protein α (sAPPα) is formed, which can be used to detect whether a compound has an effect on the secretion of soluble amyloid precursor protein α (sAPPα). To this end, Western blot assay using Aβ1-17 monoclonal antibody (6E10) was carried out to detect soluble amyloid precursor protein α (sAPPα). […] Thereafter, results from Western blot assay were subjected to quantitatively statistical analysis.

γ-secretase = biological target: T2, γ-secretase (Homo sapiens, UniProt P49768); assay: Cell-based γ-secretase assay (luciferase reporter) in T-20 cell line
T2 construct: measure the activity of γ-secretase in T-20 cell line; endogenous in cells; host or cells: T-20 (T-REx293/HEK293 stably transfected with C99-GV/TO and Gal4-Luc)
Procedure: In this example, a quantitative cell-based assay described in reference (2) and (3) was employed to measure the activity of γ-secretase in T-20 cell line.
Cell lysis and the addition of reagents for luciferase assay were completed simultaneously using the Steady-Glo luciferase assay system (Promega) as described in the manufacturer's instructions. Luciferase signals were determined by a VictorLight microplate luminometer (PerkinElmer).
A quantitative cell-based γ-secretase assay in T-20 cell line described in reference (2) was employed to measure the activity of γ-secretase. In this example, said assay and cell line thereof was used to measure effect of 1,2,3,4-tetrahydroisoquinoline derivatives on the activity of γ-secretase.
T-20 cells were routinely maintained in DMEM supplemented with 10% FBS, 200 μg/ml of hygromycin, 5 μg/ml of blasticidin, and 250 μg/ml of zeocin (DMEM-HZB). The stably transfected T-20 cells were detached from culture dishes by trypsinization, washed with PBS, and resuspended in DMEM-HZB, followed by plating onto 96-well microplates (2×10^4 cells/50 μl/well) and incubating at 37° C. for 24 hours. Preliminarily, compounds diluted in DMEM-HZB were added to a final concentration of 10 μM in the presence of tetracycline (1 μg/ml). Treatments were terminated after incubation at 37° C. for 24 hours by adding directly an equivalent volume of the Steady-Glo luciferase assay reagent (Promega), and measurements of luciferase signals from each well were performed immediately with the VictorLight microplate luminometer) (PerkinElmer). Triplicates of each compound treatment were assayed. Luciferase signal from the stable line without tetracycline induction and compound treatment was referred to as one-fold of activation. Parallel testing with a cell line constitutively expressing only the luciferase reporter gene (e.g., under control of a CMV promoter) was performed as a control.
Briefly, T-20 cell line was induced by tetracycline to express C99-GV protein fragment on cell membrane.

[3] = T20, read-out: inhibition of the activity of γ-secretase compared with positive control group

| Structure (SMILES) | IC50 [1] [µM] | Activation of ERK1/2 (p-ERK/ERK, (%)) (ERK1/2) [%] | protein content of sAPPα detected by Western blot [2] | relative sAPPα secretion (quantified Western blot) ([2]; FIG. 4B) | inhibition at 10 µM (γ-secretase; [3]) [%] | also measured |
| --- | --- | --- | --- | --- | --- | --- |
| CCN(C)C(=O)Oc1ccc2c(c1)CN(CC1CC1)CC2 [Compound 12a, 7-(N-Methyl-N-ethylcarbamoyloxy)-N-cyclopropylmethyl-1,2,3,4-tetrahydroisoquinoline] | 12.8 ± 2 | 131 ± 10 | higher than that of negative control group | could promote the secretion | 35 to 72 | – |
| C#CCN1CCc2ccc(OC(=O)N3CCOCC3)cc2C1 [Compound 11d, 7-(1-Morpholinecarbamoyloxy)-N-propargyl-1,2,3,4-tetrahydroisoquinoline] | 18.7 ± 1.6 | – | – | – | – | – |
| C#CCN1CCc2ccc(OC(=O)N3CCCC3)cc2C1 [Compound 11b, 7-(1-Pyrrolidinecarbamoyloxy)-N-propargyl-1,2,3,4-tetrahydroisoquinoline] | 13.9 ± 0.5 | – | – | – | – | – |
| O=C(Oc1ccc2c(c1)CN(CC1CC1)CC2)N1CCCC1 [Compound 12b, 7-(1-Pyrrolidinecarbamoyloxy)-N-cyclopropylmethyl-1,2,3,4-tetrahydroisoquinoline] | 14.9 ± 1.1 | – | – | – | – | – |
| C#CCN1CCc2ccc(OC(=O)N(C)CC)cc2C1 [Compound 11a, 7-(N-Methyl-N-ethylcarbamoyloxy)-N-propargyl-1,2,3,4-tetrahydroisoquinoline] | 21.5 ± 1 | – | – | – | – | – |
| C#CCN[C@@H]1CCc2ccccc21 [Rasagiline, rasagiline, reference compound] | – | 131 ± 14 | – | – | – | inhibition at 10 µM (γ-secretase; T20, 10 μM, T-20 cells, 24 hours, tetracycline 1 μg/ml, FIG. 2, read-out: inhibition of the activity of γ-secretase compared with positive control group): 6 to 15% |
| C#CCN1CCc2ccc(OC(=O)N3CCCCC3)cc2C1 [Compound 11c, 7-(1-Piperidinecarbamoyloxy)-N-propargyl-1,2,3,4-tetrahydroisoquinoline] | 15.7 ± 2.2 | – | – | – | – | – |
| O=C(Oc1ccc2c(c1)CN(CC1CC1)CC2)N1CCCCC1 [Compound 12c, 7-(1-Piperidinecarbamoyloxy)-N-cyclopropylmethyl-1,2,3,4-tetrahydroisoquinoline] | 11.6 ± 0.7 | 155 ± 28 | higher than that of negative control group | could promote the secretion | 35 to 72 | ability to activate ERK relative to rasagiline test group (ERK1/2; 10 μM each): 1.2 times; promotion of sAPPα secretion compared with rasagiline test group ([2]; FIG. 4B): better promotion effect than rasagiline test group |
| O=C(Oc1ccc2c(c1)CN(CC1CC1)CC2)N1CCOCC1 [Compound 12d, 7-(1-Morpholinecarbamoyloxy)-N-cyclopropylmethyl-1,2,3,4-tetrahydroisoquinoline] | 18.5 ± 0.8 | 138 ± 39 | higher than that of negative control group | could promote the secretion | 35 to 72 | – |

— patent US8173648B2 (priority 2008, dated 2012)
